Experimental findings from US11040980B2, “Substituted pyrazolo[3,4-d]pyrimidines as kinase inhibitors” (PRINCIPIA BIOPHARMA INC., priority 2012, dated 2021) are described below.

The experiment concerns the target protein target (Homo sapiens (Human), UniProt Q06187). Put plainly: Reversibility of binding (compound in solution before and after perturbation of target, HPLC-MS/MS). The conditions noted are these: target in native (folded) state, target in excess of compound. As for the experimental part:
The following approach was developed to differentiate compounds that form irreversible covalent bond with their targets, such as non-cyano containing acrylamide compounds, from compound that form reversible covalent bond i.e., compounds and/or pharmaceutically acceptable salts of the present disclosure. […] The reactions were then treated with perturbations including both denaturation with 5 M guanidine hydrochloride and digestion with trypsin, disrupting proper folding of the target. […] The concentration of compound in solution was assessed both preceding and following perturbation using high performance liquid chromatography (HPLC) coupled to tandem mass spectrometry.

Structures are written as SMILES.

Sequence of protein target (Q06187 whole entry): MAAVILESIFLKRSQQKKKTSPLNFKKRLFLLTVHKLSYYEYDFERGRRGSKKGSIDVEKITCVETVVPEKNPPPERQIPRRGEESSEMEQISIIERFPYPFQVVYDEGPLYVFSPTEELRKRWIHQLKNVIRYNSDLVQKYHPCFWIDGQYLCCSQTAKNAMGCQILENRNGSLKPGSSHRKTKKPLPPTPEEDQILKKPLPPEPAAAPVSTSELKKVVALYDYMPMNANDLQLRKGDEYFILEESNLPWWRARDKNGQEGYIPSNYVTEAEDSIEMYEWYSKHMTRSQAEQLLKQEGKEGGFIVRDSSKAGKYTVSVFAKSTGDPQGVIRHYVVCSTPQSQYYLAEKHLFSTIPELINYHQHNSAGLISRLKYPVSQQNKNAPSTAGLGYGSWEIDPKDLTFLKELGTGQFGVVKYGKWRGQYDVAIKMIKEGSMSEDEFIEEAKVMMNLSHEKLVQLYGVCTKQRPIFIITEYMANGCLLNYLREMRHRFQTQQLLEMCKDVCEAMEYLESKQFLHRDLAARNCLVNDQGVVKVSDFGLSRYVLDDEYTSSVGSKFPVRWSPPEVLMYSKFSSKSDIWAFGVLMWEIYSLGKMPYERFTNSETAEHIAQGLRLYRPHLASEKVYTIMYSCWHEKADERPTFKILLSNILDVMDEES

Take `CN(C1COC1)C(C)(C)C=C(C#N)C(=O)N1CCC[C@H]1Cn1nc(-c2ccc(Oc3ccccc3)cc2F)c2c(N)ncnc21` [Example 10, 2-[(2S)-2-[[4-amino-3-(2-fluoro-4-phenoxy-phenyl)pyrazolo[3,4-d]pyrimidin-1-yl]methyl]pyrrolidine-1-carbonyl]-4-methyl-4-[methyl(oxetan-3-yl)amino]pent-2-enenitrile]: the “Compound in solution in the native state?” value was “no”.
